Several values for one entry are separate records, joined by “and”; a condition that tells them apart may be missing. Equal values may be shown once. Entries after “also recorded” stand apart in the source; their conditions may differ. Read-outs that look alike come from different tables or passages of the source. Square brackets hold non-standard residues; d marks the D form. Ends that are not written are not given here. Peptide text beside a SMILES is read from it.
Experiments:
PBMC induced with SEB = format: cell-based, human
cell-surface B7-2 = format: binding, human
cell-surface B7-2, sequence (P01552 28-266 limits assumed): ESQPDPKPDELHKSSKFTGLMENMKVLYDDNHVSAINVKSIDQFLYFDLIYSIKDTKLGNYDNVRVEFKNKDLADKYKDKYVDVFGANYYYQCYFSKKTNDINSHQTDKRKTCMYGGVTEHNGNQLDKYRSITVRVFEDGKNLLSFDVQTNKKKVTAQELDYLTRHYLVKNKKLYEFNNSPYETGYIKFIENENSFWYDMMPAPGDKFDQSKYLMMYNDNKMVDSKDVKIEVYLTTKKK

SEB = SEB (Staphylococcus aureus, UniProt P01552); experiment: biochemical; format: binding, S. aureus; settings: for kon: read-out: Ka (1/Ms), association rate; for koff: read-out: Kd (1/s), dissociation rate
SEB, sequence (P01552 28-266 limits assumed): as above

TSST-1 = TSST-1 (Staphylococcus aureus, UniProt P06886); experiment: biochemical; format: binding, S. aureus; settings: for kon: read-out: Ka (1/Ms), association rate; for koff: read-out: Kd (1/s), dissociation rate
TSST-1, sequence (P06886 41-234 limits assumed): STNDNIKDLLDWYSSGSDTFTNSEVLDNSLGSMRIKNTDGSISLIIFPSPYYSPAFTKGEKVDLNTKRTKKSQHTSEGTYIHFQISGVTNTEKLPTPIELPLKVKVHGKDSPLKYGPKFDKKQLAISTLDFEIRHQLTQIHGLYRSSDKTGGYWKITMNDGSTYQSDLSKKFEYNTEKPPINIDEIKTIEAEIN

SMEZ = format: binding, Streptococcus pyogenes
cell-surface CD28 [1] = format: binding
cell-surface CD28, sequence (P01552 28-266 limits assumed): as the sequence (P01552 28-266 limits assumed) above

cell-surface CD28 [2] = target: cell-surface CD28 (Staphylococcus aureus, UniProt P01552); settings: cited from earlier work
cell-surface CD28 (Staphylococcus aureus, UniProt P01552), sequence (P01552 28-266 limits assumed): as above

[3] = tested on: PBMC induced with E. coli LPS; format: cell-based, human
[4] = tested on: SEB lethality in D-galactosamine-sensitized mice; format: in vivo, BALB/c mice
PBMC induced with αCD3 = format: cell-based, human
[5] = tested on: PBMC induced with αCD3/αCD28; format: cell-based, human

## [dA]DLPCQFANSQN[dA] [D-Ala-pB2-2]
PBMC induced with SEB
  inhibition of SEB-mediated induction of IFN-γ: failed to inhibit
cell-surface B7-2
  inhibition of binding of SEB to cells expressing B7-2: did not inhibit binding

## CC(C)C[C@H](NC(=O)[C@@H](NC(=O)[C@H](Cc1c[nH]c2ccccc12)NC(=O)[C@H](CO)NC(=O)[C@H](CC(=O)O)NC(=O)[C@H](CO)NC(=O)[C@@H](N)CC(=O)O)[C@@H](C)O)C(=O)N[C@@H](CCCNC(=N)N)C(=O)O [pB2-6] (H-DSDSWTLR-OH; N-terminus and C-terminus assumed)
SEB
  kon: 491 M⁻¹ s⁻¹
  koff: 0.0019 s⁻¹
PBMC induced with SEB
  inhibition of SEB-mediated induction of IFN-γ: only partially
  inhibition of SEB-mediated induction of IL-2: only partially
  inhibition of SEB-mediated induction of TNF-α: only partially
TSST-1
  kon: 2530 M⁻¹ s⁻¹
  koff: 0.00304 s⁻¹
SMEZ
  Ka (1/Ms), association rate: 1,590 1/Ms
  Kd: 1790 nM
  Kd (1/s), dissociation rate: 0.00286 s⁻¹

## [dA]HHKKPTGMIR[dA] [D-Ala-pB2-3]
PBMC induced with SEB
  inhibition of SEB-mediated induction of IFN-γ: failed to inhibit

## CSCC[C@H](NC(=O)[C@H](Cc1ccc(O)cc1)NC(=O)[C@H](CCCCN)NC(=O)[C@H](CO)NC(=O)[C@H](Cc1c[nH]cn1)NC(=O)[C@@H](NC(=O)[C@H](CO)NC(=O)[C@H](CC(=O)O)NC(=O)[C@H](Cc1ccccc1)NC(=O)[C@H](CCCCN)NC(=O)[C@@H](N)CCC(=O)O)C(C)C)C(=O)O [pB2-4] (H-EKFDSVHSKYM-OH; N-terminus and C-terminus assumed)
SEB
  kon: 413 M⁻¹ s⁻¹
  koff: 0.000958 s⁻¹
PBMC induced with SEB
  inhibition of SEB-mediated induction of IFN-γ: only partially
  inhibition of SEB-mediated induction of IL-2: only partially
  inhibition of SEB-mediated induction of TNF-α: only partially
TSST-1
  kon: 4080 M⁻¹ s⁻¹
  koff: 0.0277 s⁻¹
SMEZ
  Ka (1/Ms), association rate: 3,020 1/Ms
  Kd (1/s), dissociation rate: 0.00293 s⁻¹

## SPMLVAYD [p2TA, reference compound]
cell-surface CD28 [1]
  blocking of binding of SEB to cell-surface CD28: capable of blocking
cell-surface B7-2
  inhibition of binding of SEB to cells expressing B7-2: equally inhibited
cell-surface CD28 [2]
  blocking of binding of SEB to cell-surface CD28: abrogated

## HVKGKHLCP [p1TA, reference compound]
cell-surface CD28 [1]
  blocking of binding of SEB to cell-surface CD28: capable of blocking
cell-surface B7-2
  inhibition of binding of SEB to cells expressing B7-2: equally inhibited
cell-surface CD28 [2]
  blocking of binding of SEB to cell-surface CD28: abrogated

## [dA]MLKIQAY[dA] [D-Ala-pB2-5]
PBMC induced with SEB
  inhibition of SEB-mediated induction of IFN-γ: failed to inhibit

## [dA]MGRTSFDSDS[dA] [D-Ala-pB2-7]
cell-surface CD28 [1]
  blocking of binding of SEB to cell-surface CD28: capable of blocking
[3]
  attenuation of LPS-mediated induction of TNF-α: reduced
[4]; n=6
  survival of SEB challenge (mice surviving/group): protected and 6/6
cell-surface B7-2
  inhibition of binding of SEB to cells expressing B7-2: likewise blocked
PBMC induced with αCD3
  induction of an IFN-γ response by the peptide alone: at neither concentration
  inhibition of induction of IFN-γ by αCD3: did not inhibit

## [dA]DSDSWTLR[dA] [D-Ala-pB2-6]
cell-surface CD28 [1]
  blocking of binding of SEB to cell-surface CD28: capable of blocking
[3]
  attenuation of LPS-mediated induction of TNF-α: sensitive to attenuation; also recorded: reduced
[4]; n=5
  survival of SEB challenge (mice surviving/group): 5/5
PBMC induced with SEB
  effect on SEB-mediated induction of IL-10: resistant
  inhibition of SEB-mediated induction of IFN-γ: strongly inhibitory
  inhibition of SEB-mediated induction of IL-2: inhibited
  inhibition of SEB-mediated induction of TNF-α: inhibited
cell-surface B7-2
  inhibition of binding of SEB to cells expressing B7-2: effectively blocked

## MGRTSFDSDS [pB2-7]
[5]
  attenuation of IFN-γ expression induced by αCD3/αCD28: significant attenuation
  attenuation of TNF-α expression induced by αCD3/αCD28: significant attenuation
PBMC induced with SEB
  inhibition of SEB-mediated induction of IFN-γ: inhibited
  inhibition of SEB-mediated induction of IL-2: inhibited
  inhibition of SEB-mediated induction of IL-10: did not inhibit
  inhibition of SEB-mediated induction of TNF-α: inhibited

## [dA]EKFDSVHSKYM[dA] [D-Ala-pB2-4]
cell-surface CD28 [1]
  blocking of binding of SEB to cell-surface CD28: capable of blocking
[3]
  attenuation of LPS-mediated induction of TNF-α: sensitive to attenuation; also recorded: reduced
[4]; n=5
  survival of SEB challenge (mice surviving/group): 4/5
[5]
  inhibition of CD28 signaling, IFN-γ induced by αCD3/αCD28: inhibition
  inhibition of CD28 signaling, TNF-α induced by αCD3/αCD28: inhibition
PBMC induced with SEB
  effect on SEB-mediated induction of IL-10: resistant
  inhibition of SEB-mediated induction of IFN-γ: strongly inhibitory
  inhibition of SEB-mediated induction of IL-2: inhibited
  inhibition of SEB-mediated induction of TNF-α: inhibited
cell-surface B7-2
  inhibition of binding of SEB to cells expressing B7-2: effectively blocked

Reference: patent US10584157B2 (priority 2015, dated 2020)
